# Laboratory results: US20250154198A1, “PEPTIDE INHIBITORS OF INTERLEUKIN-23 RECEPTOR” (Zealand Pharma A/S, priority 2021, published 2025)
# Like-named read-outs stand apart in the source and are kept apart here. Where a SMILES comes first, the peptide text is derived from it.
# How the values were obtained:
# [1] = target: IL-23 mediated phospho-STAT3 formation in DB cells (Homo sapiens, UniProt Q5VWK5); assay: Functional inhibition of IL-23 mediated STAT3 signalling (phospho-STAT3 Tyr705 MSD) in DB cells; assay type: cell-based; settings: DB cells, read-out: IC50 (pSTAT3)
# Text: Functional Inhibition of IL-23 Mediated STAT3 Signalling by Compounds
# Upon binding of IL-23, the IL-23R forms a heterodimer signalling complex together with IL-12R β1, which through the JAK2/STAT3 pathway promotes phosphorylation of STAT3 to form phospho-STAT3.
# The assay was used to quantify the functional antagonism of a compound and to rank order the inhibitor compounds according to their potency. For compounds tested in this assay, the response was normalized relative to control values to calculate the IC50 and maximal inhibitory response from a concentration response curve of the compound in presence of a fixed concentration of human IL-23.
# The assay procedure was as follows. […] Following preincubation of the DB cells with inhibitor for 15 min in a cell incubator (37° C., 5% CO2), 20 μL of the prepared 3× the EC80 of hIL-23 solution was added to each well and incubated for 90 min in a cell incubator (37° C., 5% CO2). For some wells buffer only or IL-23 only corresponding to the EC80 was added to obtain readouts needed for normalization. To terminate the assay, the plate was spun at 1000 G for 5 min to pellet cells, the supernatant removed using an 8-channel manual pipette, and then added 50 μL/well Complete Lysis Buffer from the MSD STAT3 kit (Cat #K150SVD, Mesoscale) to the cell pellet. To completely lyse cells to release phospho-STAT3 for detection, the plate was shaken for 10 min at room temperature (500 rpm) sealed with aluminum foil and placed at −80° C. for a minimum of 15 min. Detection of the phospho-STAT3 level in the cell lysate from the individual wells was determined using the MSD STAT3 kit (Cat #K150SVD, Mesoscale) and read on a Meso QuickPlex SQ 120 plate reader (Mesoscale).
# For data analysis raw data counts from the Meso QuickPlex SQ 120 plate reader were normalized relative to the response by the EC80 of hIL-23 alone (no compound added) and the buffer level. Compound potency (IC50) and maximal inhibitory response (% inhibition) were estimated by computer-aided curve fitting using a 4-parameter logistic (4PL) non-linear model.
# human IL-23R = target: T1, human IL-23R (Homo sapiens, UniProt Q5VWK5); assay: Binding assay (NanoBRET displacement of fluorophore-labelled reference compound) for estimating binding affinity to human IL-23R
# T1 construct: UniProtKB—Q5VWK5, amino acids 22-629; secretion signal of the plasmid (Promega N1371); expressed in transfected cells
# T1 sequence (Q5VWK5 22-629): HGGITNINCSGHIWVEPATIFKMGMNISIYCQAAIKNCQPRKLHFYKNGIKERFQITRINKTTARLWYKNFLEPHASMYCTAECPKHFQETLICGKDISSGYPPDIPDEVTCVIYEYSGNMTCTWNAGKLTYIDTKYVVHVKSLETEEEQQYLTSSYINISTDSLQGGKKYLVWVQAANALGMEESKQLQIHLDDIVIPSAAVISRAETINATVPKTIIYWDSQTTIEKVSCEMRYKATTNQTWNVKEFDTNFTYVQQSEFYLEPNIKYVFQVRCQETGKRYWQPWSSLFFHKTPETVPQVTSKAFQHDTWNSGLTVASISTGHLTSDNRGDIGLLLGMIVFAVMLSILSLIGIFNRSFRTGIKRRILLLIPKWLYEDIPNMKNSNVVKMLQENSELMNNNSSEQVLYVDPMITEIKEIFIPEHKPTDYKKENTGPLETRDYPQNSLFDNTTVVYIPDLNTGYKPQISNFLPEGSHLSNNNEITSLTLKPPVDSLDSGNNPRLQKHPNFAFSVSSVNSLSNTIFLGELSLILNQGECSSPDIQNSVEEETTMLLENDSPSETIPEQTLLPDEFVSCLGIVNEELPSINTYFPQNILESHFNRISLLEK
# [2] = Table 3-1, read-out: Ki hIL-23R
IC50 ([1]; Table 3-1),Ki (human IL-23R; [2]),SMILES,also measured
> 1 µM,> 1 µM,"CC(=O)N[C@@H](CC(=O)O)C(=O)N[C@H]1CCC(=O)NCCCC[C@@H](C(=O)N[C@@H](CCCNC(=N)N)C(N)=O)NC(=O)[C@H](CC(C)C)NC(=O)[C@H](Cc2c[nH]c3ccccc23)NC(=O)[C@H](Cc2c[nH]c3ccccc23)NC(=O)[C@@H]2CSCC(=O)CSC[C@H](NC(=O)[C@H](CO)NC1=O)C(=O)N[C@@H](C)C(=O)N[C@@H](CCC(N)=O)C(=O)N2 [Compound 13, [Ac]-DE(1c)SC(2a)AQC(2a)WWLK(1c)R-[NH2]] (HELM PEPTIDE1{[ac].D.E.S.C.A.Q.C.W.W.L.K.R.[am]}|CHEM1{[O=C(C[*:1])C[*:2]]}$PEPTIDE1,PEPTIDE1,3:R3-12:R3|PEPTIDE1,CHEM1,5:R3-1:R1|PEPTIDE1,CHEM1,8:R3-1:R2$$$V2.0)",
> 1 µM,> 1 µM,"CC(=O)N[C@@H](CC(=O)O)C(=O)N[C@H]1CCC(=O)NCCCC[C@@H](C(=O)N[C@@H](CCCNC(=N)N)C(N)=O)NC(=O)[C@H](CC(C)C)NC(=O)[C@H](Cc2c[nH]c3ccccc23)NC(=O)[C@H](C)NC(=O)[C@@H]2CSCC(=O)CSC[C@H](NC(=O)[C@H](CO)NC1=O)C(=O)N[C@@H](Cc1c[nH]c3ccccc13)C(=O)N[C@@H](CCC(N)=O)C(=O)N2 [Compound 14, [Ac]-DE(1c)SC(2a)WQC(2a)AWLK(1c)R-[NH2]] (HELM PEPTIDE1{[ac].D.E.S.C.W.Q.C.A.W.L.K.R.[am]}|CHEM1{[O=C(C[*:1])C[*:2]]}$PEPTIDE1,PEPTIDE1,3:R3-12:R3|PEPTIDE1,CHEM1,5:R3-1:R1|PEPTIDE1,CHEM1,8:R3-1:R2$$$V2.0)",
> 1 µM,> 1 µM,"CC(=O)N[C@@H](CC(=O)O)C(=O)N[C@H]1CCC(=O)NCCCC[C@@H](C(=O)N[C@@H](CCCNC(=N)N)C(N)=O)NC(=O)[C@H](CC(C)C)NC(=O)[C@H](C)NC(=O)[C@H](Cc2c[nH]c3ccccc23)NC(=O)[C@@H]2CSCC(=O)CSC[C@H](NC(=O)[C@H](CO)NC1=O)C(=O)N[C@@H](Cc1c[nH]c3ccccc13)C(=O)N[C@@H](CCC(N)=O)C(=O)N2 [Compound 15, [Ac]-DE(1c)SC(2a)WQC(2a)WALK(1c)R-[NH2]] (HELM PEPTIDE1{[ac].D.E.S.C.W.Q.C.W.A.L.K.R.[am]}|CHEM1{[O=C(C[*:1])C[*:2]]}$PEPTIDE1,PEPTIDE1,3:R3-12:R3|PEPTIDE1,CHEM1,5:R3-1:R1|PEPTIDE1,CHEM1,8:R3-1:R2$$$V2.0)",

# The remaining lines, values behind:
SMILES,IC50 ([1]; Table 3-1),Ki (human IL-23R; [2]),also measured
"CC(C)C[C@@H]1NC(=O)[C@H](Cc2c[nH]c3ccccc23)NC(=O)[C@H](Cc2c[nH]c3ccccc23)NC(=O)[C@@H]2CSCC(=O)CSC[C@H](NC(=O)[C@H](CO)NC(=O)[C@@H](NC(=O)[C@@H](N)CC(=O)O)CCC(=O)NCCCC[C@@H](C(=O)N[C@@H](CCCNC(=N)N)C(N)=O)NC1=O)C(=O)N[C@@H](Cc1c[nH]c3ccccc13)C(=O)N[C@@H](CCC(N)=O)C(=O)N2 [Compound 4, H-DE(1c)SC(2a)WQC(2a)WWLK(1c)R-[NH2]] (HELM PEPTIDE1{D.E.S.C.W.Q.C.W.W.L.K.R.[am]}|CHEM1{[O=C(C[*:1])C[*:2]]}$PEPTIDE1,PEPTIDE1,2:R3-11:R3|PEPTIDE1,CHEM1,4:R3-1:R1|PEPTIDE1,CHEM1,7:R3-1:R2$$$V2.0)",,,"IC50 ([1]; Table 2-3b): > 1 µM; IC50 ([1]; Table 2-4b): > 1 µM; IC50 ([1]; Table 2-5b): > 1 µM; potency depending on location of the amide bond in the [2,11] lactam bridge (in words) (human IL-23R; Compound 7 (amide closer to position 11) versus Compound 4 (closer to position 2), Table 2-3b): less active"
"CC(C)C[C@@H]1NC(=O)[C@H](Cc2c[nH]c3ccccc23)NC(=O)[C@H](Cc2c[nH]c3ccccc23)NC(=O)[C@@H]2CCCCNC(=O)CC[C@H](NC(=O)[C@H](CO)NC(=O)[C@@H](NC(=O)[C@@H](N)CC(=O)O)CSCC(=O)CSC[C@@H](C(=O)N[C@@H](CCCNC(=N)N)C(N)=O)NC1=O)C(=O)N[C@@H](Cc1c[nH]c3ccccc13)C(=O)N[C@@H](CCC(N)=O)C(=O)N2 [Compound 5, H-DC(1a)SE(2c)WQK(2c)WWLC(1a)R-[NH2]] (HELM PEPTIDE1{D.C.S.E.W.Q.K.W.W.L.C.R.[am]}|CHEM1{[O=C(C[*:1])C[*:2]]}$PEPTIDE1,CHEM1,2:R3-1:R1|PEPTIDE1,CHEM1,11:R3-1:R2|PEPTIDE1,PEPTIDE1,4:R3-7:R3$$$V2.0)",> 1 µM,> 1 µM,
"CC(C)C[C@@H]1NC(=O)[C@H](Cc2c[nH]c3ccccc23)NC(=O)[C@H](Cc2c[nH]c3ccccc23)NC(=O)[C@@H]2CSCC(=O)CSC[C@H](NC(=O)[C@H](CO)NC(=O)[C@H](CC(=O)O)NC(=O)[C@H](CCCNC(=N)N)NC1=O)C(=O)N[C@@H](Cc1c[nH]c3ccccc13)C(=O)N[C@@H](CCC(N)=O)C(=O)N2 [Compound 6, D(1c)*SC(2a)WQC(2a)WWLR(1c)*] (HELM PEPTIDE1{C.W.Q.C.W.W.L.R.D.S}|CHEM1{[O=C(C[*:1])C[*:2]]}$PEPTIDE1,CHEM1,1:R3-1:R1|PEPTIDE1,CHEM1,4:R3-1:R2|PEPTIDE1,PEPTIDE1,1:R1-10:R2$$$V2.0)",> 1 µM,> 1 µM,
"CC(C)C[C@@H]1NC(=O)[C@H](Cc2c[nH]c3ccccc23)NC(=O)[C@H](Cc2c[nH]c3ccccc23)NC(=O)[C@@H]2CSCC(=O)CSC[C@H](NC(=O)[C@H](CO)NC(=O)[C@@H](NC(=O)[C@@H](N)CC(=O)O)CCC(=O)NCC[C@@H](C(=O)N[C@@H](CCCNC(=N)N)C(N)=O)NC1=O)C(=O)N[C@@H](Cc1c[nH]c3ccccc13)C(=O)N[C@@H](CCC(N)=O)C(=O)N2 [Compound 9, H-DE(1c)SC(2a)WQC(2a)WWL[Dab](1c)R-[NH2]] (HELM PEPTIDE1{D.E.S.C.W.Q.C.W.W.L.[Dab].R.[am]}|CHEM1{[O=C(C[*:1])C[*:2]]}$PEPTIDE1,PEPTIDE1,2:R3-11:R3|PEPTIDE1,CHEM1,4:R3-1:R1|PEPTIDE1,CHEM1,7:R3-1:R2$$$V2.0)",> 1 µM,> 1 µM,
"CC(=O)N[C@H]1CCC(=O)NCCCC[C@@H](C(=O)N[C@@H](CCCNC(=N)N)C(N)=O)NC(=O)[C@H](CC(C)C)NC(=O)[C@H](Cc2c[nH]c3ccccc23)NC(=O)[C@H](Cc2c[nH]c3ccccc23)NC(=O)[C@@H]2CSCC(=O)CSC[C@H](NC(=O)[C@H](CO)NC1=O)C(=O)N[C@@H](Cc1c[nH]c3ccccc13)C(=O)N[C@@H](CCC(N)=O)C(=O)N2 [Compound 10, [Ac]-E(1c)SC(2a)WQC(2a)WWLK(1c)R-[NH2]] (HELM PEPTIDE1{[ac].E.S.C.W.Q.C.W.W.L.K.R.[am]}|CHEM1{[O=C(C[*:1])C[*:2]]}$PEPTIDE1,PEPTIDE1,2:R3-11:R3|PEPTIDE1,CHEM1,4:R3-1:R1|PEPTIDE1,CHEM1,7:R3-1:R2$$$V2.0)",,,"IC50 ([1]; Table 2-4b): 0.617 µM; Ki (human IL-23R; Table 2-4b, read-out: Ki IL-23R): 0.101 µM"
"CC(=O)N[C@@H](CC(=O)O)C(=O)N[C@H]1CCC(=O)NCCCC[C@@H](C(=O)N[C@@H](CCCNC(=N)N)C(N)=O)NC(=O)[C@H](CC(C)C)NC(=O)[C@H](Cc2c[nH]c3ccccc23)NC(=O)[C@H](Cc2c[nH]c3ccccc23)NC(=O)[C@@H]2CSCC(=O)CSC[C@H](NC(=O)[C@H](CO)NC1=O)C(=O)N[C@@H](Cc1c[nH]c3c(C)cccc13)C(=O)N[C@@H](CCC(N)=O)C(=O)N2 [Compound 16, [Ac]-DE(1c)SC(2a)[7-Me-Trp]QC(2a)WWLK(1c)R-[NH2]] (HELM PEPTIDE1{[ac].D.E.S.C.[Cc1cccc2c(C[C@H](N[*:1])C(=O)[*:2])c[nH]c12].Q.C.W.W.L.K.R.[am]}|CHEM1{[O=C(C[*:1])C[*:2]]}$PEPTIDE1,PEPTIDE1,3:R3-12:R3|PEPTIDE1,CHEM1,5:R3-1:R1|PEPTIDE1,CHEM1,8:R3-1:R2$$$V2.0)",,,"IC50 ([1]; Table 2-5b): 0.461 µM; Ki (human IL-23R; Table 2-5b, read-out: Ki IL-23R): 0.0954 µM"
